Measurements published in patent US6541506B1, “Antifungal enediynes” (Phytera Incorporated, priority 1999, dated 2003).
Values after ≈ are worked out from the molar mass of the structure shown.

What was measured:
[1] = system: C. albicans DSY1024; assay: Candida growth inhibition (XTT), C. albicans DSY1024; type: cell-based; settings: C. albicans DSY1024 (Table 4)
Description: (§1) There are numerous assays that can be used to measure the inhibition of growth of a fungus such as Candida. In one example, cultures of Candida, e.g., C. albicans strains DSY1024 and SC5314, C. krusei ATCC 6258, and C. glabrata ATCC 90030, are subcultured from cryopreserved stocks onto Sabouraud's dextrose agar plates. Blastoconidia are suspended into RPMI-MOPS medium and inoculated (500 cfu/well) into 96-well plates containing test compounds in a final volume of 100 μL/well. After 22 hours at 35° C., 25 μL of XTT (2,3-bis(2-methoxy-4-nitro-5-sulfophenyl)-5-(phenylamino)carbonyl]-2H-tetrazolium hydroxide), (100 μg/mL) with PMS (phenazine methyl sulfate, 5 μM) are added to each well, followed by 2 hours of shaking. Growth is assessed spectrophotometrically by measuring the appearance of soluble formazan stain at 450 nm using an Emax microplate reader. Validity of the assay is confirmed by determination of the C. albicans minimum inhibitory concentration (MIC) for known antifungal agents such as amphotericin B, 5-flucytosine, fluconazole, nikkomycin Z, and polyoxin D.
LP416E8 (AC-05081-T4-3) was an organic extract of a manipulated plant cell culture from A. corsicum.

[2] = system: Candida; assay: Anti-Candida activity by backbone length; type: cell-based; settings: X=7
Excerpt: The variable X denotes the length of a saturated carbon backbone. The antifungal activity of the claimed compounds changes in part based on the length of this backbone. […] Preferably, X is an integer between 5 and 7, inclusive, although longer carbon chains (X=8-10) may preserve or increase antifungal activity.

[3] = system: C. albicans strain #64 (sensitive to fluconazole); parameters: species or system mice; settings: mouse, in vivo
Description: Immunocompetent mice (ICR, Sprague-Dawley, Indianapolis, Ind.) are infected with a pathogenic strain (e.g., strain #64) of C. albicans that is sensitive to fluconazole. After 24 hours, dissemination of infection has been shown by organ colony counts (kidney, spleen, and liver) greater than 10^5 colony forming units (CFU). Treatment is begun 24 hours after infection with dosage once a day for 10 days. Untreated control mice usually die after about 16 days. After 30 days the percent survival in the group treated with fluconazole (40 mg per kg body weight, twice a day) is about 30%. In addition to measuring animal viability, the organ fungal load (in CFU) can measured.

[4] = system: C. albicans UTR-14 (fluconazole-resistant clinical isolate); assay: Fluconazole-resistant candidiasis in mice; type: in vivo; settings: fluconazole-resistant C. albicans UTR-14, 40 mg per kg body weight p.o. twice daily
Description: In a similar experiment using a fluconazole-resistant clinical isolate (e.g., C. albicans UTR-14), the percent survival after 20 days of the group treated with fluconazole (40 mg per kg body weight p.o. (twice daily)) and in the untreated group is each usually 0%.

[5] = system: C. albicans SC5314; assay: Candida growth inhibition (XTT), C. albicans SC5314; type: cell-based
Description: as §1

[6] = system: T. rubrum; assay: Dermatophyte growth inhibition (microdilution, NCCLS M27A), T. rubrum; type: cell-based, Trichophyton rubrum
Description: (§2) The compounds of the invention are also effective against dermatophytes. Testing was performed using a microdilution method based on the NCCLS M27A antifungal protocol. Compounds to be tested were prepared in DMSO and diluted to the appropriate concentration in RPMI 1640 medium (the dermatophyte growth medium). An inoculum of each test organism was prepared from oatmeal agar plates to contain 0.5-2.5×10^3 conidia/mL. One hundred microliters of the inoculum was added to each well of a 96-well microtiter plate containing 4 μL of a test compound and 96 μL of RPMI 1640. Terbinafine (sold under the brand name Lamisil®) was used as a positive control.

[7] = system: T. mentagrophytes; assay: Dermatophyte growth inhibition (microdilution, NCCLS M27A), T. mentagrophytes; type: cell-based
Description: as §2

[8] = system: T. tonsurans; assay: Dermatophyte growth inhibition (microdilution, NCCLS M27A), T. tonsurans; type: cell-based
Description: as §2

[9] = system: M. canis; assay: Dermatophyte growth inhibition (microdilution, NCCLS M27A), M. canis; type: cell-based, Microsporum canis
Description: as §2

For `O=C(O)CCCCCCC/C=C\C#CC#Cc1ccco1` [Compound 5], the IC50 [1] was 0.0039 µg/mL (≈ 0.0137 µM), the MIC [1] was 0.0078 µg/mL (≈ 0.0274 µM) and the “anti-Candida activity (ranking by backbone length X)” value [2] was “greatest anti-Candida activity”.
In the case of `OC(Cn1cncn1)(Cn1cncn1)c1ccc(F)cc1F` [fluconazole], the “percent survival after 30 days” value [3] is reported as “about 30%” and the “percent survival after 20 days” value [4] is reported as 0%.
For `COC(=O)CCCCCCC/C=C\C#CC#Cc1ccco1` [Compound 7], the IC50 [1] was 0.19 µg/mL (≈ 0.637 µM), the MIC [1] was 0.25 µg/mL (≈ 0.838 µM) and the “inhibition of growth of strain SC5314” value [5] was “able to inhibit growth”. For the same compound, the IC50 ([5]; C. albicans SC5314 (Table 4)) was 0.221 µg/mL (≈ 0.741 µM), the MIC ([5]; C. albicans SC5314 (Table 4)) was 0.25 µg/mL (≈ 0.838 µM) and the MIC ([6]; T. rubrum, four days at 35° C., visual inspection) was 0.125 µg/mL (≈ 0.419 µM). For the same compound, the MIC ([7]; T. mentagrophytes, four days at 35° C., visual inspection) was 0.125 µg/mL (≈ 0.419 µM), the MIC ([8]; T. tonsurans, four days at 35° C., visual inspection) was 0.125 µg/mL (≈ 0.419 µM) and the MIC ([9]; M. canis, four days at 35° C., visual inspection) was 0.125 µg/mL (≈ 0.419 µM). For the same compound, the “anti-Candida activity (ranking by backbone length X)” value [2] was “greatest anti-Candida activity”.
`CN(C/C=C/C#CC(C)(C)C)Cc1cccc2ccccc12` [Terbinafine, reference compound] showed an MIC ([6]; Trichophyton rubrum, 96 h) of 0.002 µg/mL (≈ 0.00686 µM), an MIC ([7]; Trichophyton mentagrophytes, 96 h) of 0.004 µg/mL (≈ 0.0137 µM) and an MIC ([8]; Trichophyton tonsurans, 96 h) of 0.015 µg/mL (≈ 0.0515 µM). The MIC ([9]; Microsporum canis, 96 h) was 0.015 µg/mL (≈ 0.0515 µM).
